The nature of assay [1]: Writhing Assay (PBQ-induced writhing, analgesia). In kind it is in vivo, Charles River male albino mice. To be noted: Mus musculus, po, intragastric; for responders at 30 mg/kg: 30 mg per kilogram, 25 minutes before PBQ i.p., writhes ≤ one-half median of saline control, read-out: WRITHING ASSAY, number of mice out of 9 or 10 in which test compound produced analgesia (converted). As for the experimental part:
The phrase "ED50 dose" as used herein means that dose of a compound or drug which produced a biological effect, such as producing analgesia, in 50% of the animals to which the compound or drug was administered. The Writhing Assay is one of the most widely-used experimental procedures for measuring the analgesic activity of different narcotic and nonnarcotic analgesic agents, and involves the continuous, chemically-induced pain of visceral origin to an animal, such as a mouse or rat. [Gyires et al., Arch. int. Pharmacodyn, 267, 131-140 (1984); […] al., Fed. Proc., 15, 494 (1956); Koster et al., Fed. Proc., 18, 412 (1959); and Witken et al., J. Pharmacol. exp. Ther., 133, 400-408 (1961).] Chemicals which may be used to induce this pain include phenylbenzoquinone (PBQ) and acetic acid. As a result of the chemical irritation to the animal, a characteristic stretching and writhing of the animal (dorsiflexion of the animal's back, extension of its hindlimbs and the strong contraction of its abdominal musculature) will generally occur. […] Drugs which reduce the number of writhes of the animal appear to restore the normal nociceptive threshold of the animal. […] Charles River male albino mice, weighing 20 to 30 grams were used in this assay. Twenty-five minutes after intragastric administration to nine or ten mice of 30 mg per kilogram of body weight of a compound of the present invention ("test compound"), […] per 10 g of body weight of a 0.025% w/v solution of PBQ was injected intraperitoneally into each mouse. Ten mice which were given saline in place of a test compound of the invention were used as a control group. Five minutes later, each mouse was individually placed into a glass beaker for observation, and the number of writhes occurring during the following ten-minute period was counted. A test compound was considered to have produced analgesia in a mouse if, in accordance with the conditions set forth above, and under the test criteria employed for this assay, after the administration of 30 mg per kilogram of body weight of a compound of the present invention to the mouse, the number of writhes elicited by a mouse injected with PBQ was equal to, or less than, one-half the median number of writhes recorded for the saline-treated control group of mice that day, as described by Taber in "Predictive Value of Analgesic Assays in Mice and Rats," Advances in Biochemical Psychopharmacology, 8, 191 (1974). The results for the particular compounds of the present invention analyzed in this assay, and discussed in the examples identified below which correspond thereto, are presented in Table 1 hereinbelow as fractions under the heading "WRITHING ASSAY." The fractions indicate the number of mice out of nine or ten in which a test compound produced analgesia. The standard initial screening dose of a test compound employed in this assay was 30 milligrams per […] of body weight. If this initial screening dose of the test compound produced analgesia in seven of nine or ten mice, then the effect of additional doses of the test compound on the writhing response was evaluated, and then the ED50 dose was generally calculated. (The slopes of the dose-response curves for all test compounds analyzed were compared as described by Tallarida and Murray, Manual of Pharmacologic Calculations, Page 11 (Springer Verlag, New York, 1981)). All ED50 doses calculated are also presented below as whole numbers in Table 1, under the heading "WRITHING ASSAY."
A general note: An intraperitoneal irritant provokes the stretching counted in writhing tests.

Assay [2] addresses T1, prostaglandin E2-induced contractions of segments of guinea pig ileum (Cavia porcellus, UniProt A0A286XHJ6).
T1 construct: Segments of ileum about 2 cm long were then cut and mounted in a 10-mL tissue bath; from tissue; host or cells: guinea pig ileum segments
T1 sequence (A0A286XHJ6 1-405): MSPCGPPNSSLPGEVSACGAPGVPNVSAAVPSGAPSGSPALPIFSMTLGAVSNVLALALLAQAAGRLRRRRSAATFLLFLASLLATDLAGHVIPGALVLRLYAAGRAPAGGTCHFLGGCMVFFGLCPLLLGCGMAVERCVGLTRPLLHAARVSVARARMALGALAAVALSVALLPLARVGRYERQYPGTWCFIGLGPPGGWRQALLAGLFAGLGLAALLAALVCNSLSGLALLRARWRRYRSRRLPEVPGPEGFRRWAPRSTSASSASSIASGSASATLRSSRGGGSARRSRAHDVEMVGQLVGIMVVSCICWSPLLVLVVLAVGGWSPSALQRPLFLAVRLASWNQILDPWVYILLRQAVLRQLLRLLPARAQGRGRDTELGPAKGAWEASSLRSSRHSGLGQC
The experiment in a line: Prostaglandin (PGE) Antagonism Assay (guinea pig ileum). Type of assay: cell-based, male albino guinea pigs. To be noted: estimated from 3 micromolar (dose ratio ≥2) or Schild plot (dose ratio ≥5); 37° C.; read-out: PGE ANTAGONISM IN GUINEA PIG ILEUM (pA2) (converted). The source says:
The phrase "EC50 concentration" as used herein means that concentration of a compound or drug which is necessary to elicit a 50% maximal biological response and, thus, which is necessary to elicit a 50% reduction in the contractions of guinea pig ileum segments in a prostaglandin antagonism assay. (b) Prostaglandin (PGE) Antagonism Assay In order to determine the effectiveness of several of the compounds of the present invention ("test compounds") as prostaglandin E2 antagonists,a prostaglandin antagonism assay was conducted, as described below, to determine the ability of these compounds to inhibit prostaglandin E2 -induced contractions of segments of guinea pig ileum. […] Male albino guinea pigs weighing 200 to 500 grams were sacrificed by cervical dislocation. The ilea were then quickly removed from the guinea pigs and placed in a modified Tyrode solution, a solution which is known to those skilled in the art, containing one-half of the usual amount of magnesium ions. Segments of ileum about 2 cm long were then cut and mounted in a 10-mL tissue bath containing the modified Tyrode solution. The solution was maintained at 37° C. and aerated with a gaseous mixture of 95% oxygen and 5% carbon dioxide. Data for a control prostaglandin E2 dose response curve plotting concentration of prostaglandin E2 versus the intensity of contractions, detected isotonically, was then obtained by experimentally adjusting the dose of the prostaglandin E2 being injected into the tissue bath, in a manner known by those of skill in the art. Solutions or suspensions containing an initial concentration (3 micromolar) of a test compound in modified Tyrode solution ("test solutions/suspensions") were then separately substituted for the control bath solution. Each test solution/suspension was then kept in constant contact with the ileum tissue, except for brief periods to drain the bath in preparation for rinsing with fresh test solution/suspension. A second prostaglandin E2 dose response curve was then generated for prostaglandin E2 in the presence of a test compound. A dose ratio of EC50 doses was then calculated from the results of each test in a manner known by those of skill in the art. A test compound was determined to be "active" if the initial concentration used yielded at least a two-fold shift (dose ratio greater than or equal to 2) in the dose response curve for prostaglandin E2. […] The compounds of the present invention which were tested in this assay, and for which results are presented in Table 1, correspond to the particular examples specified in Table 1.

Where a name gives a salt, the structure may show the parent alone.

For `O=C(Nc1ccncc1)c1csc(N2Cc3ccccc3Oc3ccc(Cl)cc32)n1` [Example 28, 2-(8-Chlorodibenz[b,f][1,4]oxazepin-10(11H)-yl)-N-4-pyridinyl-4-thiazolecarboxamide, hydrochloride], the responders at 30 mg/kg in assay [1] was 100%. Further, the Kb in assay [2] was 3160 nM.

Turning to `O=C(Nc1cccnc1)c1csc(N2Cc3ccccc3Oc3ccc(Cl)cc32)n1` [Example 29, 2-(8-Chlorodibenz[b,f][1,4]oxazepin-10(11H)-yl)-N-3-pyridinyl-4-thiazolecarboxamide, hydrochloride], the responders at 30 mg/kg in assay [1] was 60%. Further, in assay [2], the Kb is 1000 nM.

As to `O=C(CCc1ccncc1)c1csc(N2Cc3ccccc3Oc3ccc(Cl)cc32)n1` [Example 32, 1-[2-(8-Chlorodibenz[b,f][1,4]oxazepin-10(11H)-yl)-4-thiazolyl]-3-(4-pyridinyl)-1-propanone, monohydrochloride], in assay [1], the responders at 30 mg/kg is 60%. Moreover, in assay [2], the Kb is 631 nM.

Broadly, the ED50 is the dose at which the effect has come halfway, by size or by number of responders. A lower ED50 goes with greater potency. For `OC(/C=C\c1ccncc1)c1csc(N2Cc3ccccc3Oc3ccc(Cl)cc32)n1` (centres unmarked) [Example 34A, 2-(8-Chlorodibenz[b,f][1,4]oxazepin-10(11H)-yl)-a-[2Z(4-pyridinyl)ethenyl]-4-thiazolemethanol, hydrochloride], in assay [1] (mice, PBQ), the 50% effect level (ED50) was put at a dose of 9.7 mg/kg. In assay [2], the Kb is 794 nM.

Take `OC(CCc1ccncc1)c1csc(N2Cc3ccccc3Oc3ccc(Cl)cc32)n1` (stereo not drawn) [Example 34B, α-[2-(8-Chlorodibenz[b,f][1,4]oxazepin-10(11H)-yl)-4-thiazolyl]-4-pyridinepropanol, dihydrochloride]: the responders at 30 mg/kg in assay [1] is 50%. Further, in assay [2], the Kb is 1580 nM.

For the compound `O=C(NCc1csc(N2Cc3ccccc3Oc3ccc(Cl)cc32)n1)c1ccncc1` [Example 36, N-[[2-(8-Chlorodibenz[b,f][1,4]oxazepin-10(11H)-yl)-4-thiazolyl]methyl]-4-pyridinecarboxamide, hydrochloride], the responders at 30 mg/kg in assay [1] is 60%. For the same compound, the Kb in assay [2] is 631 nM.

As to `O=C(NCc1cccnc1)c1csc(N2Cc3ccccc3Oc3ccc(Cl)cc32)n1` [Example 37, 2-(8-Chlorodibenz[b,f][1,4]oxazepin-10(11H)-yl)-N-(3-pyridinylmethyl)-4-thiazolecarboxamide, hydrochloride], in assay [1], the responders at 30 mg/kg is 10%. For the same compound, the Kb in assay [2] is 1000 nM.

(Values after patent US5395932A, “2,3-,4-,5-,6-,7-,8-,9- and/or 10-substituted dibenzoxazepine compounds, pharmaceutical compositions and methods of use” (G. D. Searle & Co., priority 1993, dated 1995).)
